The record followed here is patent US20240293412A1, “NAMPT ACTIVATORS FOR TREATING METABOLIC AND NEUROLOGICAL DISORDERS” (The Board of Trustees of the University of Illinois, priority 2021, published 2024).

One test has as its target NAMPT (Homo sapiens (Human), UniProt P43490). The test is described as follows: NAMPT coupled enzyme activity assay. It counts as biochemical. The settings on record: NAMPT activation, Table 2; for Emax: read-out: Maximum activation (%).
The subject of a further test is THP-1 cells. The test is described as follows: cells. The settings on record: Homo sapiens, THP-1, 24 h; for Emax: read-out: Maximum activation (%).

Structures are written as SMILES.

Sequence of NAMPT (P43490 whole entry): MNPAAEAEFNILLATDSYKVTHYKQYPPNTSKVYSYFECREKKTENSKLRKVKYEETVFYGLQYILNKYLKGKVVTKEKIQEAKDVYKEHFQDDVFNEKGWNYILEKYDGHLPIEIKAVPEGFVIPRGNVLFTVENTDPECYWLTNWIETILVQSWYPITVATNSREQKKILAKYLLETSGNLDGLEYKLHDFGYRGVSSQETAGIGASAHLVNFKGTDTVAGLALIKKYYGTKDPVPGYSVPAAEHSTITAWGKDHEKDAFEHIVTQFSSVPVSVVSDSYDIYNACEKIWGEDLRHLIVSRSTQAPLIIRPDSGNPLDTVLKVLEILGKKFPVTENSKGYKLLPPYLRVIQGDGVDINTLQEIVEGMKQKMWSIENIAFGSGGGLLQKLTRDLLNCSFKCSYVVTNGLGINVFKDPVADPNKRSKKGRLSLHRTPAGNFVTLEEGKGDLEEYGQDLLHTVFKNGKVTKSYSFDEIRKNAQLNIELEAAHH

For the compound `Cc1ccc(-n2cc3c(N4CCCC(C(=O)NCc5ccc(N(C)C)cc5)C4)ncnc3n2)cc1` (stereo not drawn), at NAMPT, the EC50 was determined as 0.16 µM and the Emax worked out at 186%.

For the compound `CSc1ccc(CNC(=O)C2CCN(c3ncnc4nn(-c5ccc(C)cc5)cc34)CC2)cc1`, at NAMPT, the midpoint of the response, the EC50, lay at 9.4 µM and the Emax worked out at 240%.

With `Cc1ccc(-n2cc3c(N4CCCC(C(=O)NCc5cc[nH]n5)C4)ncnc3n2)cc1` (stereo not drawn), the EC50 at NAMPT was > 10 µM.

For the compound `O=C(NCc1ccc2sccc2c1)[C@H]1CCCN(c2ncnc3nn(-c4ccc(C(F)(F)F)cc4)cc23)C1`, in the test on THP-1 cells, a half-maximal effect (EC50) was put at 0.74 µM and the Emax is 150%.

Turning to `CSc1ccc(CNC(=O)[C@H]2CCCN(c3ncnc4nn(-c5ccc(C)cc5)cc34)C2)cc1`, in the test with THP-1 cells, a half-maximal response (EC50) required 3.2 µM and the Emax turned out to be 202%.

Broadly, the EC50 is the concentration giving half of the maximal effect.
